# Laboratory results taken from article PMC12528448, “Resistance to CDK7 inhibitors directed by acquired mutation of a conserved residue in cancer cells” (The EMBO Journal, 2025).
# Where “and” joins values, the source holds several entries; their conditions need not be identical. Equal values may be shown once.
# Assays:
# [1] = system: MCF7-CDK4^D99N (CL1) cells; assay: IncuCyte confluency growth, homozygous CDK4 D99N clone CL1; type: cell-based, human
# Experimental: (§1) To determine the IC50 of drug treatments on growth, cells were seeded in 96-well culture plates. Two days after seeding, the cells were treated with increasing concentrations of drugs and incubated for 4 days. Cell number was determined using the SRB assay (Skehan et al, [1990]), and IC50 values were calculated using non-linear regression curve fitting in GraphPad Prism v10. For all other growth experiments, cells were seeded into 96-well plates, and appropriate drugs were added 2 days after seeding. Cells were then incubated in an IncuCyte Zoom live-cell imager, with cell confluency measured every 6 h. Cell doubling times were determined by non-linear curve fitting (exponential growth equation) in GraphPad Prism v10.
# [2] = system: MCF7-CDK4^WT/D99N (CL4) cells; assay: IncuCyte confluency growth, heterozygous CDK4 D99N clone CL4; type: cell-based, human; settings: MCF7 CDK4 WT/D99N CL4, 50nM Palbociclib
# Experimental: as §1
# [3] = homozygous mutant clone, 1 µM Palbociclib
compound,measurement,setting,value
CC(=O)c1c(C)c2cnc(Nc3ccc(N4CCNCC4)cn3)nc2n(C2CCCC2)c1=O [Palbociclib],% Confluency,"[1]; MCF7 CDK4 D99N/D99N CL1, 50nM Palbociclib, 0 Hours",4.47% and 7.41% and 8.54%
same,% Confluency,"[1]; MCF7 CDK4 D99N/D99N CL1, 50nM Palbociclib, 12 Hours",6.57% and 10.81% and 12.65%
same,% Confluency,"[1]; MCF7 CDK4 D99N/D99N CL1, 50nM Palbociclib, 24 Hours",7.94% and 14.04% and 16.28%
same,% Confluency,"[1]; MCF7 CDK4 D99N/D99N CL1, 50nM Palbociclib, 36 Hours",9.96% and 16.26% and 19.65%
same,% Confluency,"[1]; MCF7 CDK4 D99N/D99N CL1, 50nM Palbociclib, 60 Hours",16.05% and 25.67% and 31.53%
same,% Confluency,"[1]; MCF7 CDK4 D99N/D99N CL1, 50nM Palbociclib, 72 Hours",20.59% and 33.83% and 40.66%
same,% Confluency,"[1]; MCF7 CDK4 D99N/D99N CL1, 100nM Palbociclib, 0 Hours",5.11% and 7.96% and 8.92%
same,% Confluency,"[1]; MCF7 CDK4 D99N/D99N CL1, 100nM Palbociclib, 12 Hours",7.75% and 11.79% and 13.54%
same,% Confluency,"[1]; MCF7 CDK4 D99N/D99N CL1, 100nM Palbociclib, 24 Hours",9.54% and 15.28% and 17.18%
same,% Confluency,"[1]; MCF7 CDK4 D99N/D99N CL1, 100nM Palbociclib, 36 Hours",11.96% and 17.72% and 19.72%
same,% Confluency,"[1]; MCF7 CDK4 D99N/D99N CL1, 100nM Palbociclib, 48 Hours",15.88% and 21.63% and 24.14%
same,% Confluency,"[1]; MCF7 CDK4 D99N/D99N CL1, 100nM Palbociclib, 60 Hours",19.72% and 27.06% and 29.56%
same,% Confluency,"[1]; MCF7 CDK4 D99N/D99N CL1, 100nM Palbociclib, 72 Hours",25.72% and 33.76% and 37.42%
same,% Confluency,"[1]; MCF7 CDK4 D99N/D99N CL1, 100nM Palbociclib, 84 Hours",33.55% and 43.80% and 49.43%
same,% Confluency,"[1]; MCF7 CDK4 D99N/D99N CL1, 100nM Palbociclib, 96 Hours",44.26% and 56.08% and 62.73%
same,% Confluency,"[1]; MCF7 CDK4 D99N/D99N CL1, 500nM Palbociclib, 0 Hours",4.28% and 7.96% and 8.62%
same,% Confluency,"[1]; MCF7 CDK4 D99N/D99N CL1, 500nM Palbociclib, 12 Hours",6.49% and 11.80% and 13.50%
same,% Confluency,"[1]; MCF7 CDK4 D99N/D99N CL1, 500nM Palbociclib, 24 Hours",8.63% and 14.98% and 17.24%
same,% Confluency,"[1]; MCF7 CDK4 D99N/D99N CL1, 500nM Palbociclib, 36 Hours",10.70% and 16.67% and 18.25%
same,% Confluency,"[1]; MCF7 CDK4 D99N/D99N CL1, 500nM Palbociclib, 48 Hours",13.35% and 19.15% and 19.83%
same,% Confluency,"[1]; MCF7 CDK4 D99N/D99N CL1, 500nM Palbociclib, 60 Hours",17.13% and 22.40% and 23.57%
same,% Confluency,"[1]; MCF7 CDK4 D99N/D99N CL1, 500nM Palbociclib, 72 Hours",21.34% and 27.28% and 27.86%
same,% Confluency,"[1]; MCF7 CDK4 D99N/D99N CL1, 500nM Palbociclib, 84 Hours",27.05% and 33.32% and 34.40%
same,% Confluency,"[1]; MCF7 CDK4 D99N/D99N CL1, 500nM Palbociclib, 96 Hours",34.72% and 41.63% and 42.47%
same,% Confluency,"[1]; MCF7 CDK4 D99N/D99N CL1, 500nM Palbociclib, […] Hours",39.86%
same,% Confluency,"[1]; MCF7 CDK4 D99N/D99N CL1, 1000nM Palbociclib, 0 Hours",4.23% and 6.28% and 8.65%
same,% Confluency,"[1]; MCF7 CDK4 D99N/D99N CL1, 1000nM Palbociclib, 12 Hours",6.49% and 9.38% and 13.38%
same,% Confluency,"[1]; MCF7 CDK4 D99N/D99N CL1, 1000nM Palbociclib, 24 Hours",8.61% and 12.05% and 16.81%
same,% Confluency,"[1]; MCF7 CDK4 D99N/D99N CL1, 1000nM Palbociclib, 36 Hours",10.75% and 13.98% and 18.02%
same,% Confluency,"[1]; MCF7 CDK4 D99N/D99N CL1, 1000nM Palbociclib, 48 Hours",13.71% and 15.18% and 19.26%
same,% Confluency,"[1]; MCF7 CDK4 D99N/D99N CL1, 1000nM Palbociclib, 60 Hours",17.11% and 17.23% and 21.83%
same,% Confluency,"[1]; MCF7 CDK4 D99N/D99N CL1, 1000nM Palbociclib, 72 Hours",21.46% and 20.52% and 24.80%
same,% Confluency,"[1]; MCF7 CDK4 D99N/D99N CL1, 1000nM Palbociclib, 84 Hours",26.42% and 23.91% and 29.84%
same,% Confluency,"[1]; MCF7 CDK4 D99N/D99N CL1, 1000nM Palbociclib, 96 Hours",33.28% and 29.04% and 35.27%
same,Sensitivity of growth,[1]; homozygous mutant clone vs MCF7,substantially less sensitive
same,Doubling time,[1]; [3],54.6 (95% CI = 48.4–62.1) h
same,Increase of doubling time vs vehicle,[1]; [3],twofold
same,% Confluency,[2]; 0 Hours,5.85% and 7.14% and 7.68%
same,% Confluency,[2]; 12 Hours,8.21% and 10.76% and 12.27%
same,% Confluency,[2]; 24 Hours,10.88% and 13.85% and 15.74%
same,% Confluency,[2]; 36 Hours,13.80% and 16.38% and 19.05%
same,% Confluency,[2]; 48 Hours,17.70% and 21.33% and 24.63%
